{"source": "paper PMC11742723", "about": "“The clinical-stage drug BTZ-043 accumulates in murine tuberculosis lesions and efficiently acts against Mycobacterium tuberculosis” (Nature Communications, 2025)", "tested_on": "Mtb", "format": "cell-based, Mycobacterium tuberculosis"}
{"smiles": "C[C@H]1COC2(CCN(c3nc(=O)c4cc(C(F)(F)F)cc([N+](=O)[O-])c4s3)CC2)O1", "note": "[BTZ-043]", "values": [{"measurement": "effect on mycobacterial growth on agar containing BTZ-043", "setting": "1 ng/mL BTZ-043, bacteria from BTZ-043 treated BALB/c mice, untreated mice and H37Rv", "result": "did not restrict mycobacterial viability"}, {"measurement": "growth of Mtb from drug treated IL-13tg mice on agar containing BTZ-043", "setting": "5 or 10 ng/mL BTZ-043, IL-13tg mice 250 mg/kg/day 10 days", "result": "did not grow"}, {"measurement": "mycobacterial growth on agar containing BTZ-043", "setting": "5 or 10 ng/mL BTZ-043, bacteria from BTZ-043 treated BALB/c mice, untreated mice and H37Rv", "result": "No growth"}]}
